Measurements reported in patent US20240228487A1, “FUSED HETEROCYCLIC COMPOUND AND APPLICATION THEREOF, PHARMACEUTICAL COMPOSITIONS CONTAINING SAME AND APPLICATION THEREOF” (ZHEJIANG UNIVERSITY, priority 2021, published 2024).
Where a name gives a salt, the structure may show the parent alone.

The molecules below were run against T1, human TRPM2 channels (Homo sapiens, UniProt O94759) (assay: whole cell patch clamp, inhibition of TRPM2 channel current). Conditions: HEK293 cells stably expressing human TRPM2, 500 μM ADPR.
T1 construct: expressed in transfected cells
Format: cell-based
Method: The fused heterocyclic compound of the present invention has an inhibitory effect on the TRPM2 channel, and its pharmacological activity is measured using whole cell patch clamp technology, the corresponding steps are as follows: Incubating HEK293 cells stably expressing human TRPM2 channels in DMEM/F-12 medium containing 10% bovine serum, 50 units/mL of penicillin and […] of streptomycin under the condition of 5% CO2 and 37° C. The cells before testing are stored in the extracellular fluid (147 mM NaCl, 2 mM KCl, 1 mM MgCl2, 2 mM CaCl2, 10 mM HEPES, 13 mM glucose, pH 7.4). The electrode is filled with the electrode internal solution (147 mM NaCl, 0.05 mM EGTA, 1 mM MgCl2, 10 mM HEPES, 0.5 mM ADPR, pH=7.3), and the resistance is maintained at 3-5 M Ω. Administering ADPR into cells through electrodes, and detecting the ADPR concentration used to activate TRPM2 as 500 μM, when detecting a stable current, perfusing the corresponding concentration of fused heterocyclic compound II-1 into the extracellular fluid for at least 60 seconds. record the change in current magnitude using voltage ramp mode, changing the voltage from −100 mV to+100 mV within 500 ms, with a normal clamp voltage of 0 mV and a TRPM every 5 seconds; finally, replacing the extracellular fluid with a solution with pH=5.0 to block the TRPM2 current, the electrophysiological current test results obtained are shown in Table 1, and the electrophysiological current graph obtained is shown in FIG. 1. Similarly, administering corresponding concentrations of other fused heterocyclic compounds (II-2˜II-54, III-1˜III-11) into the extracellular fluid, taking electrophysiological tests using the same method, the results are shown in Table 1. The electrophysiological representative current graphs of some fused heterocyclic compounds (II-9, II-19, and II-36) inhibiting TRPM2 channel current are shown in FIG. 1.

T1 sequence (O94759 whole entry): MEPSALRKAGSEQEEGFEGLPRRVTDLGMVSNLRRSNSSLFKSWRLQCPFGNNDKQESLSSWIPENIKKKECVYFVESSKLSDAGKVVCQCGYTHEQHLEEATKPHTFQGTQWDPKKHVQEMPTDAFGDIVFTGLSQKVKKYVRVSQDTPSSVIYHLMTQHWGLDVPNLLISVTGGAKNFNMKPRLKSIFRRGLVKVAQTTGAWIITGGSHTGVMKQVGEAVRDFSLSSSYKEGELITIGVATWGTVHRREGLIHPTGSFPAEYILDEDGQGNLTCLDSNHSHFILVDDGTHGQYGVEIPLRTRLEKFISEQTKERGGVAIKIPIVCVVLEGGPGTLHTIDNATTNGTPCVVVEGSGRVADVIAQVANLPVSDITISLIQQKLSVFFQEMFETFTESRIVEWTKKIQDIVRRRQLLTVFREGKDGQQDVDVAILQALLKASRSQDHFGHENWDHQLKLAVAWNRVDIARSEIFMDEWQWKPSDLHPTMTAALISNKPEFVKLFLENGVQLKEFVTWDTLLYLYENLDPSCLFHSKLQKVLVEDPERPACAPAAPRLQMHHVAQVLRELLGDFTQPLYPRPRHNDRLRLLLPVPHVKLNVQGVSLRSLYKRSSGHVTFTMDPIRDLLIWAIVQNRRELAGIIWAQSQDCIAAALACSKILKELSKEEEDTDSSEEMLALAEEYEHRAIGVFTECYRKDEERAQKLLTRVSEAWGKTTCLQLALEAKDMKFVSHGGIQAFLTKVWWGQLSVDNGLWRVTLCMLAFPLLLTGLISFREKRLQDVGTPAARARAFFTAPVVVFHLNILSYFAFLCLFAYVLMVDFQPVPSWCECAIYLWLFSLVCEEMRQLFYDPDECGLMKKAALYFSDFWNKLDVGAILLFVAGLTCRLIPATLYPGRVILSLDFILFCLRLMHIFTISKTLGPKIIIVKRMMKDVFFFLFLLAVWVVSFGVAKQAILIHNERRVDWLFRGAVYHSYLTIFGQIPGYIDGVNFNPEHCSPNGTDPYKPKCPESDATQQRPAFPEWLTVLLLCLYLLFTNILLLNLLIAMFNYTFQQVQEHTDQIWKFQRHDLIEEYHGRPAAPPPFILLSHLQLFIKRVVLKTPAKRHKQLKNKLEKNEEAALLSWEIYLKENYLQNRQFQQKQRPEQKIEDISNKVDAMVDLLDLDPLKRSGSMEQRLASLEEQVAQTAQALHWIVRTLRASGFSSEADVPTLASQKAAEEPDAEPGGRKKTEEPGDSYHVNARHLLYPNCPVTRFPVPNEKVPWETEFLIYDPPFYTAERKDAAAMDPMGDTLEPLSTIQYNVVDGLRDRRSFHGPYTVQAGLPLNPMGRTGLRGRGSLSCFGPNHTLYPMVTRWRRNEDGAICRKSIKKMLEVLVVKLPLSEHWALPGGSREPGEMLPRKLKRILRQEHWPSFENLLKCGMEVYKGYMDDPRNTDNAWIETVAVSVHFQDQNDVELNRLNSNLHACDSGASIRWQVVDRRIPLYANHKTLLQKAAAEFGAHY

| Molecule | IC50 [µM] |
| --- | --- |
| CCCC(=O)OC(c1ccccc1)c1cc(C(=O)OCC)cc2cccn12 (centres unmarked) [II-48] | 10 to 20 |
| COC(=O)c1cc(C(=O)c2ccccn2)n2cccc2c1 [II-17, 5-methylpyridinimide-7-methyl carboxylate] | 1 to 10 |
| CCOC(=O)c1cc(C(=O)c2cccc(F)c2)n2cccc2c1 [II-7, 5-(3-fluorobenzoyl)indolizine-7-ethyl carboxylate] | 1 to 10 |
| CCN(CC)C(=O)c1cc(C(=O)c2ccccc2)n2ccnc2c1 [III-8, 5-Benzoyl-N,N-diethylimidazole[1,2-a]pyridine-7-formamide] | 10 to 20 |
| O=C(O)c1cc(C(O)c2ccccc2)n2cccc2c1 (centres unmarked) [II-42] | 10 to 20 |
| O=C(c1ccccc1)c1cc(C(=O)N2CCCCC2)cc2nccn12 [III-10, (5-benzimidazole[1,2-a]pyridine-7-yl) (piperidin-1-yl) ketone] | 10 to 20 |
| CCOC(=O)c1cc(C(=O)c2ccccn2)n2cccc2c1 [II-18, 5-methylpyridinimide-7-ethyl carboxylate] | 1 to 10 |
| CCOC(=O)c1cc(C(O)c2ccccc2)n2ccnc2c1 (centres unmarked) [III-11, 5-(hydroxy (phenyl)methylimidazolo [1,2-a]pyridine-7-ethyl carboxylate] | 20 to 50 |
| CCOC(=O)c1cc(C(OC)c2ccccc2)n2cccc2c1 (centres unmarked) [II-53] | 1 to 10 |
| CCOC(=O)c1cc(C(O)c2ccccc2)n2cccc2c1 (centres unmarked) [II-41] | 10 to 20 |
| COC(=O)c1cc(C(=O)c2ccc(Cl)cc2)n2ccnc2c1 [III-2, 5-(4-chlorobenzoyl) imidazolo [1,2-a]pyridine-7-methyl carboxylate] | 10 to 20 |
| O=C(O)c1cc(C(=O)c2ccccc2)n2cccc2c1 [II-19, 5-benzimide-7-carboxylic acid] | 10 to 20 |
| COC(=O)c1cc(C(=O)c2cccs2)n2cccc2c1 [II-15, 5-(thiophen-2-carbonyl)indolizine-7-methyl carboxylate] | 10 to 20 |
| CCN(CC)C(=O)c1cc(C(O)c2ccccc2)n2cccc2c1 (centres unmarked) [II-45, N,N-diethyl-5-(hydroxy(phenyl)methyl) indolizine-7-formamide] | 10 to 20 |
| CC(=O)c1cc(C(=O)c2ccccc2)n2cccc2c1 [II-3, 1-(5-Benzimide-7-yl) ethane-1-ketone] | 10 to 20 |
| CCN(CC)C(=O)c1cc(C(=O)c2ccccn2)n2cccc2c1 [II-34, N, N-Diethyl-5-pyridylimide-7-formamide] | 1 to 10 |
| CCOC(=O)c1cc(C(=O)c2cccs2)n2cccc2c1 [II-16, 5-(thiophen-2-carbonyl) indolizine-7-ethyl carboxylate] | 1 to 10 |
| CCN(C)C(=O)c1cc(C(=O)c2ccccc2)n2cccc2c1 [II-24, 5-Benzoyl-N-ethyl-N-methylindolizine-7-formamide] | 1 to 10 |
| CCOC(=O)c1cc(C(=O)c2ccc(F)cc2)n2cccc2c1 [II-5, 5-(4-fluorobenzoyl) indolizinee-7-ethyl carboxylate] | 10 to 20 |

| Molecule | IC50 [µM] |
| --- | --- |
| CN(C)C(=O)c1cc(C(=O)c2ccccc2)n2ccnc2c1 [III-6, 5-Benzoyl-N,N-dimethylimidazole[1,2-a]pyridine-7-formamide] | 10 to 20 |
| CCCCCCCC(=O)OC(c1ccccc1)c1cc(C(=O)N(CC)CC)cc2cccn12 (centres unmarked) [II-52] | 20 to 50 |
| CCN(C)C(=O)c1cc(C(O)c2ccccc2)n2cccc2c1 (centres unmarked) [II-46, N-ethyl-5-(hydroxy(phenyl)methyl)-N-methylindolizine-7-formamide] | 10 to 20 |
| CCNC(=O)c1cc(C(=O)c2ccccc2)n2ccnc2c1 [III-7, 5-benzoyl-N-ethylimidazolo[1,2-a]pyridine-7-formamide] | 1 to 10 |
| CCNC(=O)c1cc(C(O)c2ccccc2)n2cccc2c1 (centres unmarked) [II-43, N-ethyl-5-(hydroxy(phenyl)methyl) indolizine-7-formamide] | 10 to 20 |
| O=C(c1ccccn1)c1cc(C(=O)N2CCNCC2)cc2cccn12 [II-36, (5-Pyridinyllin-2-yl) (Piperazin-1-yl) Methylketone] | 20 to 50 |
| CCNC(=O)c1cc(C(=O)c2ccccc2)n2cccc2c1 [II-21, 5-benzoyl-N-ethylindolizine-7-formamide] | 10 to 20 |
| CN(C)C(=O)c1cc(C(O)c2ccccc2)n2cccc2c1 (centres unmarked) [II-44, 5-(hydroxy(phenyl)methyl)-N, N-dimethylindolizine-7-formamide] | 10 to 20 |
| O=C(c1ccccn1)c1cc(C(=O)N2CCCC2)cc2cccn12 [II-35] | 10 to 20 |
| O=C(c1ccccn1)c1cc(C(=O)N2CCNCC2)cc2cccn12 [II-40, hydrochloride] | 10 to 20 |
| COC(=O)c1cc(C(=O)c2ccc(C)cc2)n2ccnc2c1 [III-3, 5-(4-methylbenzoyl) imidazolo [1,2-a]pyridine-7-methyl carboxylate] | 10 to 20 |
| CCOC(=O)c1cc(C(=O)c2cccc(OC)c2)n2cccc2c1 [II-12, Ethyl 5-(3-methoxybenzoyl) indolizine-7-carboxylate] | 10 to 20 |
| CCOC(=O)c1cc(C(=O)c2cccc(C)c2)n2cccc2c1 [II-11, 5-(3-methylbenzoyl) indolizine-7-Ethyl carboxylate] | 1 to 10 |
| CCOC(=O)c1cc(C(=O)c2ccccc2)n2ccnc2c1 [III-4, 5-benzimidazolo[1,2-a]pyridine-7-ethyl carboxylate] | 10 to 20 |
| O=C(c1ccccc1)c1cc(C(=O)N2CCCC2)cc2cccn12 [II-27, (5-benzoimide 7-yl) (pyrrolidine-1-yl) ketone] | 10 to 20 |
| CN1CCN(C(=O)c2cc(C(=O)c3ccccc3)n3cccc3c2)CC1 [II-31, (5-Benzimide-7-yl) (4-methylpiperazin-1-yl) ketone] | 10 to 20 |
| O=C(c1ccccc1)c1cc(C(=O)N2CCC2)cc2cccn12 [II-26, azetidine-1-yl (5-benzoimide 7-yl) ketone] | 1 to 10 |
| O=C(c1ccccc1)c1cc(C(=O)N2CCNCC2)cc2cccn12 [II-29, (5-benzoyl indolizine-7-yl) (piperazin-1-yl) ketone] | 20 to 50 |
| CON(C)C(=O)c1cc(C(=O)c2ccccc2)n2cccc2c1 [II-25, 5-Benzoyl-N-methoxy-N-methylindolizine-7-formamide] | 1 to 10 |

| Molecule | IC50 [µM] |
| --- | --- |
| COC(=O)c1cc(C(=O)c2ccc(F)cc2)n2cccc2c1 [II-4, 5-(4-Fluorobenzoyl) indolizine-7-methyl carboxylate] | 10 to 20 |
| NC(=O)c1cc(C(=O)c2ccccc2)n2cccc2c1 [II-20, 5-benzimide-7-formamide] | 10 to 20 |
| 5-((octanyloxy) (phenyl) methyl) indolizine-7-ethyl carboxylate [II-49] | 20 to 50 |
| O=C(c1ccccc1)c1cc(C(=O)N2CCOCC2)cc2cccn12 [II-30, (5-benzimide-7-yl) (morphyryl) ketone] | 20 to 50 |
| O=C(c1ccccc1F)c1cc(C(=O)N2CCCC2)cc2cccn12 [II-33, (5-(2-fluorobenzoyl)indolizine-7-yl) (pyrrolidine-1-yl) ketone] | 10 to 20 |
| O=C(O)c1cc(C(=O)c2ccccc2)n2ccnc2c1 [III-5, 5-benzimide azo [1,2-a]pyridine-7-carboxylic acid] | 10 to 20 |
| O=C(c1ccccc1)c1cc(C(=O)N2CCCCC2)cc2cccn12 [II-28, (5-benzimide 7-yl) (piperidin-1-yl) ketone] | 10 to 20 |
| O=C(c1ccccc1)c1cc(C(=O)N2CCNCC2)cc2cccn12 [II-37, (5-Benzimide-7-yl) (piperazin-1-yl) ketone hydrochloride] | 10 to 20 |
| CCOC(=O)c1cc(C(=O)c2cccc(Cl)c2)n2cccc2c1 [II-9, 5-(3-chlorobenzoyl) indolizine-7-ethyl carboxylate] | 1 to 10 |
| COC(=O)c1cc(C(=O)c2cccc(F)c2)n2cccc2c1 [II-6, 5-(3-Fluorobenzoyl)indolizine-7-methyl carboxylate] | 1 to 10 |
| CCN(CC)C(=O)c1cc(C(=O)c2ccccn2)n2cccc2c1 [II-38, N,N-Diethyl-5-pyridylimide-7-formamide hydrochloride] | 20 to 50 |
| O=C(c1ccccc1)c1cc(C(=O)N2CCCC2)cc2nccn12 [III-9] | 10 to 20 |
| CCOC(=O)c1cc(C(=O)c2ccco2)n2cccc2c1 [II-14, 5-(furan-2-carbonyl) indolizine-7-ethyl carboxylate] | 1 to 10 |
| CN(C)C(=O)c1cc(C(=O)c2ccccc2)n2cccc2c1 [II-22, 5-benzoyl-N, N-dimethylindolizine-7-formamide] | 10 to 20 |
| CCCOC(=O)c1cc(C(=O)c2ccccc2)n2cccc2c1 [II-2, 5-benzoimide 7-carboxypropyl ester] | 1 to 10 |
| CCN(CC)C(=O)c1cc(C(OC(C)=O)c2ccccc2)n2cccc2c1 (centres unmarked) [II-50] | 10 to 20 |
| CCOC(=O)c1cc(C(OC(C)=O)c2ccccc2)n2cccc2c1 (centres unmarked) [II-47, 5-(acetoxy (phenyl)methyl) indolizine-7-ethyl carboxylate] | 10 to 20 |
| CCCC(=O)OC(c1ccccc1)c1cc(C(=O)N(CC)CC)cc2cccn12 (centres unmarked) [II-51] | 20 to 50 |
